Data reported in patent US20160039796A1, “BARETTIN AND DERIVATIVES THEREOF FOR MEDICAL USE, IN PARTICULAR FOR THE TREATMENT OF DISEASES RELATED TO OXIDATIVE STRESS OR INFLAMMATION, AND FOR PRESERVING OR WASHING ORGANS” (ABC Bioscience AS, priority 2013, published 2016).

Legend:
[1] = system: MRC-5 cells (normal human lung fibroblasts); assay: cytotoxicity assay, MRC-5 cells (CellTiter 96 AQueous One Solution); format: cell-based; details: 24 h exposure, concentrations tested (FIG. 7)
Procedure: (§1) Cytotoxicity was tested on HepG2 and MRC-5 cells (normal lung fibroblasts) for 2 h (HepG2) and 24 h (HepG2 and MRC-5) using the CellTiter 96 AQueous One Solution Assay (Promega). MBC-005 and MBC-007 were not toxic to the HepG2 or the MRC5 cells in the concentrations tested (FIG. 6 and FIG. 7). In the CLPAA assays the cells were exposed to the test compounds for 1 h before washed. Thus a 2 h exposure would detect whether the MBC-compounds are likely to cause cell death and false results in the CLPAA assays. MRC5 and HepG2 cells were also exposed to the barettin compounds for 24 h. This would reveal more long-term damage or whether any toxicity was caused by something other than membrane lysis. […] This was above the concentrations used in the CLPAA assay.
(§2) HepG2 and MRC-5 cells were grown in MEM Earle's medium (F0325) supplemented with gentamycin (10 μg/ml, A2712), non-essential amino acids (1%, K0293), sodium pyruvate (1 mM, L0473), L-alanyl-L-glutamine (2 mM, K0302) and fetal bovine serum (10%, S0115) and incubated at 37° C. with 5% CO2. Media and supplements were from Biochrom (Berlin, Germany).
(§3) Cytotoxicity was studied in HepG2 and MRC-5 cells (normal human lung fibroblasts) for 2 h (HepG2) and 24 h (HepG2 and MRC-5). […] Absorbance was measured at 485 nm in a DTX 880 Multimode Detector. Results were calculated as % survival compared to a positive control.

[2] = cytotoxicity of isolated barettin over 72 h (data not shown); format: cell-based
Text: MBC-005 and MBC-007 were not toxic to the HepG2 or the MRC5 cells in the concentrations tested (FIG. 6 and FIG. 7). […] This would reveal more long-term damage or whether any toxicity was caused by something other than membrane lysis. […] This was above the concentrations used in the CLPAA assay.

HepG2 cells [3] = assay: cytotoxicity assay, HepG2 cells (CellTiter 96 AQueous One Solution); format: cell-based; details: 2 h and 24 h exposure, concentrations tested (FIG. 6)
Procedure: as §1, §2, §3

[4] = FRAP (ferric reducing antioxidant power) assay; format: biochemical; details: for FRAP value: 30 μg/ml; for FRAP dose-response: FIG. 2
Procedure: The inventors used the biochemical assay FRAP (ferric reducing antioxidant power) to obtain an indication of the antioxidant potential of MBC-005 (isolated brominated) and MBC-007 (synthetic de-brominated).
Reagents were prepared according to benzie, I.F.F. et al. Analytical Biochemistry 1996, 239, 70-76 and carried out in a DTX 880 Multimode Detector (Beckman Coulter, Calif., USA) at 595 nm. Trolox (Sigma, 238813) was used to prepare the standard curve (0-250 μM; working concentration). The FRAP reagent (TPTZ (2,4,6-Tris(2-pyridyl)-s-triazine): Fluka, 93285; Fe: Merck 103943) was prepared daily. The assay was carried out in clear 96-well plates, with 20 μl sample and 150 μl FRAP-reagent added to each well in duplicates. Water was used as a blank. Samples were incubated at 37° C. for 30 min before reading the plate. The blank was subtracted from each sample and a standard curve was created from the average absorbance of the duplicated Trolox samples. The equation generated from the standard curve was used to calculate the trolox equivalents (TE) from each sample. Results were expressed as μM TE.

HepG2 cells [5] = assay: cellular lipid peroxidation antioxidant activity (CLPAA) assay; format: cell-based; details: for activity in CLPAA assay (lipid peroxidation in HepG2 cells): FIG. 4, normalized to positive control CumOOH
Procedure: as §2, with “HepG2” for “HepG2 and MRC-5”
The inventors used the cellular lipid peroxidation antioxidant activity (CLPAA) assay. This assays measures the intracellular ROS (reactive oxygen species) and membrane antioxidant activity, respectively. The brominated barettin molecule gave a 55% reduction in oxidation compared to the control in the CLPAA assay.
Approximately 80.000 HepG2 cells per well were seeded in black 96 well plates with clear bottom (#3603, Corning, N.Y., USA) and incubated overnight. The cells were labelled with C11-BODIPY (#D3861, Invitrogen, Eugene, Oreg.) for 30 min and incubated for 1 h with various concentrations of the test compounds. Cumene hydroperoxide (cumOOH, #247502, Sigma-Aldrich, St. Louis, Mo.) was added to initiate lipid peroxidation and the plate was immediately placed in a Victor3 Plate Reader (Perkin Elmer, Mass., USA). Both red (590/7 nm (exitation), 632/45 nm (emission)) and green (485/14 nm, 520/10 nm) fluorescence was recorded during ˜1 h. Cells were washed with PBS between additions of new reagents. Total reaction volume was 100 μl. All incubations were carried out at 37° C. with 5% CO2. Percent inhibition was calculated relative to the positive control (cumOOH without test compound).

[6] = system: IL-6 release from THP-1 cells; assay: LPS-induced release of IL-6 from THP-1 cells (ELISA); format: cell-based, human
Procedure: Monocytes are well-recognised to respond to inflammatory stimuli by releasing a range of cytokines; IL-6 is a highly expressed pro-inflammatory cytokine in activated monocytes. The principle of this assay was to compare the effect of pre-incubating human cells from a monocyte-derived cell line (THP-1) with a known anti-inflammatory drug (dexamethasone; Dex), or a range of concentrations of barettin, on IL-6 generation in response to the inflammatory stimulus, lipopolysaccharide (LPS).
THP-1 cells (Health Protection Agency, Porton Down, UK) were maintained at 37° C. with 5% CO2 in RPMI 1640 containing 10% foetal bovine serum, 2 mM L-glutamine with 100 IU/ml penicillin and 100 μg/ml streptomycin (PAA laboratories Ltd, Yeovil, UK). The cells were grown in suspension and then plated out in 24-well plates at 2×10^5 cells per well.
Treatments: • a. vehicle control (RPMI 1640+0.5% DMSO) • b. 10 μM Dex for 24 h • c. 10 μg/ml LPS for 24 h • d. Pre-treated with 10 μM Dex for 30 min followed by 10 μg/ml lipopolysaccharide LPS for 24 h • e. Pre-treated with barettin at 1, 3, 10, 30 and 100 μg/ml for 30 min followed by 10 μg/ml LPS for 24 h
The concentration of Dex and barettin remained consistent throughout the incubation period; the final DMSO concentration was 0.5%. Cells were incubated at 37° C. and 5% CO2 for 24 hours.
Following incubations, cells and supernatants were harvested into 1.5 ml Eppendorf® tubes and supernatants were cleared of cells and debris by centrifugation at 300 g for 3 min at room temperature. Supernatants were transferred to clean 1.5 ml Eppendorf® tubes and stored at −80° C.
IL-6 expression was measured by ELISA (eBioscience, human IL-6 Platinum ELISA) according to the manufacturer's instructions. Data were collected using a VarioSkan Flash plate reader and Skanit software v2.4.3 (Thermo Fisher Scientific, Basingstoke, UK).

[7] = ORAC (oxygen radical absorbance capacity) assay; format: biochemical; details: for ORAC dose-response: FIG. 3
Procedure: The inventors used the biochemical assay ORAC (oxygen radical absorbance capacity) to obtain an indication of the antioxidant potential of MBC-005 (isolated brominated) and MBC-007 (synthetic de-brominated).
The method has been modified from Huang, D. et al., Journal of Agricultural and Food Chemistry 2002, 50, 4437-4444. The assay was carried out in black 96-well plates (Nunc 7350004) and using a Victor3 Plate Reader (Perkin Elmer, Mass., USA) at 37° C. (exitation 486 nm, emission 520 nm). All reagents were dissolved in 75 mM phosphate buffer (PB) (pH 7,4). Different concentrations of the MBC-005 and MBC-007 preparations were added in duplicates followed by addition of 125 μl fluorescein (Fluka, 46960) (52 nM final concentration). After a 15 minute incubation at 37° C., 60 μl AAPH (2,2′-Azobis(2-methylpropionamidine) dihydrochloride; Sigma-Aldrich, 440914) was quickly added to each sample (44 mM final concentration). Fluorescence was recorded 25 times at 37° C. with a 70 sec delay between repeats. Trolox (0-25 μM working concentration) was included in each run to make a standard curve. PB was used as a blank and for the 0 μM Trolox sample. Area under the curve (AUC) was calculated by subtracting the AUCBlank values. A standard curve was created using the Trolox values and Trolox equivalents of the samples were calculated from the resulting equation. Results were expressed as μM TE.

[8] = system: Interleukin-1 beta (IL-1β) in LPS induced monocytes (THP-1 cells); assay: inhibition of IL-1β secretion in LPS induced monocytes (ELISA); format: cell-based, human; details: 75 and 100 μg/ml, LPS induced THP-1 cells
Procedure: (§4) Tumor necrosis factor-alpha (TNF-α) and Interleukin-1 beta (IL-1β) are both cytokines (small cell-signalling protein molecules) linked to inflammatory responses. Thus, the present inventors have tested the ability of isolated barettin (designated MCB-011 in the present experiment) to inhibit the secretion of these cytokines in LPS induces monocytes (THP-1 cells).
(§5) THP-1 cells were grown in RPMI-1640 supplemented with gentamycin and FBS and incubated at 37° C. with 5% CO2. To differentiate the monocytes into macrophages, 50 ng/ml PMA was added. Approximately 10^5 cells supplemented with 50 ng/ml PMA were seeded in 96 well plates and incubated at 37° C., 5% CO2 for 48 hours. The cells were controlled using a microscope after 24 h to make sure they had started to differentiate. After 48 h the cells were washed and new RPMI (w/o PMA) added before another 24 h incubation.
(§6) The cells were added 90 μl fresh medium and 10 μl test compound at various concentrations in duplex. After incubation for 1 h, 1 ng/ml LPS was added to all samples except negative controls. Incubation for 6 h at 37° C. followed. The reactions were stopped by freezing the plates at −80° C. immediately after incubation. One day prior to ELISA testing MaxiSorp 96F-well plates were coated with 2 μg/ml capture antibody (Ab) and placed in the refrigerator overnight. […] Results were read at DTX880 at 405 nm.

[9] = system: tumor necrosis factor-alpha (TNF-α) in LPS induced monocytes (THP-1 cells); assay: inhibition of TNF-α secretion in LPS induced monocytes (ELISA); format: cell-based, human; details: 75 and 100 μg/ml, LPS induced THP-1 cells
Procedure: as §4, §5, §6

Q: What does the source list for `N=C(N)NCCCC1NC(=O)/C(=C/c2c[nH]c3cc(Br)ccc23)NC1=O` (stereo not drawn) [MBC-005, cyclo-[(6-bromo-8-en-tryptophan)-arginine]]?
A: cytotoxicity to MRC5 cells [1]: not toxic; concentration at which cytotoxicity appears [2]: ≥ 100 µg/mL; cytotoxicity to HepG2 cells (HepG2 cells [3]): not toxic; FRAP value [4]: 77 μM TE; FRAP dose-response [4]: dose-response activity was observed; activity in CLPAA assay (lipid peroxidation in HepG2 cells) (HepG2 cells [5]): acts in a dose-dependent manner to reduce lipid peroxidation; reduction in oxidation compared to the control (HepG2 cells [5]; HepG2 cells, cumOOH-induced lipid peroxidation): 55%; effect on LPS-induced generation of IL-6, significance ([6]; 1 μg/ml (~2.4 μN)): significant; anti-inflammatory effect versus cytotoxicity ([6]; 30 μg/ml and below): genuine anti-inflammatory effect; effect on LPS-induced generation of IL-6 ([6]; 1-100 μg/ml, 30 min pre-treatment, 10 μg/ml LPS 24 h): clear concentration-dependent effect; IL-6 expression with compound alone (no LPS) ([6]; pilot data, THP-1 cells, compound alone): did not result in the up-regulation of IL-6 expression; ORAC value (Trolox equivalents) ([7]; 30 μg/ml (71.6 μM)): 5.5 μM TE; ORAC dose-response [7]: dose-response activity was observed

Q: For `N=C(N)NCCC[C@@H]1NC(=O)/C(=C/c2c[nH]c3ccccc23)NC1=O` [MBC-007], which “cytotoxicity to MRC5 cells” value [1] is on record?
A: not toxic

Q: What about the “cytotoxicity to HepG2 cells” value (HepG2 cells [3]) of the same molecule?
A: not toxic

Q: And the FRAP dose-response [4]?
A: dose-response activity was observed

Q: And the “activity in CLPAA assay (lipid peroxidation in HepG2 cells)” value (HepG2 cells [5]; listed as de-brominated synthetic analogue)?
A: did not show any significant activity

Q: And the ORAC dose-response [7]?
A: dose-response activity was observed

Q: Which “inhibition of IL-1β” value [8] does the source give for `N=C(N)NCCC[C@@H]1NC(=O)/C(=C/c2c[nH]c3cc(Br)ccc23)NC1=O` [MBC-011, Barettin] here?
A: significant inhibition

Q: What about the “inhibition of TNF-α” value [9] of the same molecule?
A: significant inhibition

Q: With `O=c1cc(-c2ccc(O)c(O)c2)oc2cc(O)cc(O)c12` [luteolin, reference compound] as the molecule, how does the FRAP value [4] read?
A: 151 μM TE
